Converted amounts (≈) assume the structure as drawn. The source made the active and inactive calls. The rule behind the calls is not given here.
Tests used:
Staphylococcus aureus [1] = assay: microbe, parasite or virus in culture; details: ATCC BAA41, 24 h
Description: Synergistic antibacterial activity against methicillin-resistant Staphylococcus aureus ATCC BAA41 assessed as inhibition of bacterial growth incubated for 24 hrs in presence of (E)-2-(4-(dimethylamino)styryl)-1-methyl-4-(4-methylpiperidin-1-yl)quinolin-1-ium iodide by checker board assay

Staphylococcus aureus [2] = assay: microbe, parasite or virus in culture; details: ATCC BAA41, 24 h; remark: listed apart in the source
Description: Synergistic antibacterial activity against methicillin-resistant Staphylococcus aureus ATCC BAA41 assessed as inhibition of bacterial growth incubated for 24 hrs in presence of (E)-2-(4-(dimethylamino)styryl)-1-methyl-4-(piperidin-1-yl)quinolin-1-ium iodide by checker board assay

Staphylococcus aureus [3] = assay: microbe, parasite or virus in culture; details: ATCC BAA41, 24 h; remark: listed apart in the source
Description: Synergistic antibacterial activity against methicillin-resistant Staphylococcus aureus ATCC BAA41 assessed as inhibition of bacterial growth incubated for 24 hrs in presence of (E)-4-(4-(dimethylamino)styryl)-1-methyl-2-(4-methylpiperidin-1-yl)quinolin-1-ium iodide by checker board assay

Staphylococcus aureus [4] = assay: microbe, parasite or virus in culture; details: ATCC BAA41, 24 h; remark: listed apart in the source
Description: Synergistic antibacterial activity against methicillin-resistant Staphylococcus aureus ATCC BAA41 assessed as inhibition of bacterial growth incubated for 24 hrs in presence of (E)-2-(4-(dimethylamino)styryl)-1-methyl-4-(pentylamino)quinolin-1-ium iodide by checker board assay

Staphylococcus aureus [5] = assay: Antibacterial activity against methicillin-resistant Staphylococcus aureus ATCC BAA41 assessed as inhibition of bacterial growth incubated for 24 hrs by checker board assay; format: functional
Staphylococcus aureus [6] = assay: Antibacterial activity against methicillin-resistant Staphylococcus aureus ATCC 43300 assessed as inhibition of bacterial growth incubated for 20 to 24 hrs by broth micro dilution method; format: functional; details: time 20-24 hrs
Bacillus subtilis [7] = assay: Antibacterial activity against Bacillus subtilis CMCC (B) 63501 assessed as inhibition of bacterial growth incubated for 20 to 24 hrs by broth micro dilution method; format: functional; details: time 20-24 hrs
Enterococcus faecalis = assay: Antibacterial activity against Enterococcus faecalis ATCC 29212 assessed as inhibition of bacterial growth incubated for 20 to 24 hrs by broth micro dilution method; format: functional; details: time 20-24 hrs
Staphylococcus aureus [8] = assay: Antibacterial activity against methicillin-resistant Staphylococcus aureus ATCC BAA41 assessed as fractional inhibitory concentration index incubated for 24 hrs by checker board assay; format: functional
Enterococcus faecium [9] = assay: Bactericidal activity against Enterococcus faecium ATCC 700221 assessed as inhibition of bacterial growth incubated for 24 hrs by resazurin dye based microtiter plate assay; format: functional
Escherichia coli [10] = assay: Antibacterial activity against Escherichia coli ATCC 25922 assessed as inhibition of bacterial growth incubated for 20 to 24 hrs by broth micro dilution method; format: functional; details: time 20-24 hrs
Staphylococcus aureus [11] = assay: Bactericidal activity against Staphylococcus aureus ATCC 43300 assessed as inhibition of bacterial growth incubated for 24 hrs by resazurin dye based microtiter plate assay; format: functional
Staphylococcus aureus [12] = assay: Antibacterial activity against methicillin-resistant Staphylococcus aureus ATCC BAA-1720 assessed as inhibition of bacterial growth incubated for 20 to 24 hrs by broth micro dilution method; format: functional; details: time 20-24 hrs
Staphylococcus aureus [13] = assay: Induction of morphological changes in Staphylococcus aureus ATCC 29213 assessed as enlargement of cell size at 0.5 times MIC for 4 hrs by microscopic analysis; format: functional, organism-based
[14] = biological target: T1, Cell division protein FtsZ (Staphylococcus aureus) (UniProt P0A031); assay: Binding affinity to Staphylococcus aureus FtsZ assessed as decrease in beta turn structure at 8 ug/ml incubated for 30 mins by circular dichroism method; details: dose 8.0 µg/ml
T1 sequence (whole entry): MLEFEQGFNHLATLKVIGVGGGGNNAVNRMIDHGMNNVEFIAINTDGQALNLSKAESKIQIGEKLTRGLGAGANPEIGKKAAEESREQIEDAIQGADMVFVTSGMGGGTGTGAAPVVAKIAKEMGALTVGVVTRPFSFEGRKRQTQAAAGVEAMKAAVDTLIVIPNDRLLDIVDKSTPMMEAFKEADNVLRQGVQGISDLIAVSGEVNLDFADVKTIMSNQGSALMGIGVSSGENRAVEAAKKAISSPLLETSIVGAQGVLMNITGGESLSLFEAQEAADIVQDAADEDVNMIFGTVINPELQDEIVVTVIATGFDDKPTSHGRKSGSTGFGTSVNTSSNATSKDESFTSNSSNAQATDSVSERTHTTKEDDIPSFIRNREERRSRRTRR

Acinetobacter baumannii = assay: Antibacterial activity against multi-drug resistant Acinetobacter baumannii ATCC 19606 assessed as inhibition of bacterial growth incubated for 20 to 24 hrs by broth micro dilution method; format: functional; details: time 20-24 hrs
[15] = biological target: T1, Cell division protein FtsZ (Staphylococcus aureus); assay: Binding affinity to Staphylococcus aureus FtsZ assessed as equilibrium binding constant by isothermal titration calorimetry
[16] = biological target: T2, Cell division protein FtsZ (Staphylococcus aureus, UniProt P0A031); assay: Binding affinity to Staphylococcus aureus FtsZ assessed as dissociation constant by isothermal titration calorimetry
T2 sequence (P0A031 whole entry): T1 sequence (whole entry)

[17] = biological target: T1, Cell division protein FtsZ (Staphylococcus aureus); assay: Binding affinity to Staphylococcus aureus FtsZ assessed as decrease in random coil structure at 8 ug/ml incubated for 30 mins by circular dichroism method; details: dose 8.0 µg/ml
[18] = biological target: T1, Cell division protein FtsZ (Staphylococcus aureus); assay: Induction of Staphylococcus aureus FtsZ polymerization expressed in Escherichia coli BL21 (DE3) assessed as increase in absorbance at 2 to 8 ug/ml in presence of GTP by microplate reader method; details: dose 2-8 µg/ml, DDE = dose-dependent effect
Staphylococcus aureus [19] = assay: Antibacterial activity against vancomycin-intermediate Staphylococcus aureus Mu50 assessed as inhibition of bacterial growth incubated for 20 to 24 hrs by broth micro dilution method; format: functional; details: time 20-24 hrs
Klebsiella pneumoniae = assay: Antibacterial activity against NDM-1 expressing Klebsiella pneumoniae ATCC BAA 2470 assessed as inhibition of bacterial growth incubated for 20 to 24 hrs by broth micro dilution method; format: functional; details: time 20-24 hrs
[20] = system: Staphylococcus epidermidis; assay: Antibacterial activity against Staphylococcus epidermidis ATCC 12228 assessed as inhibition of bacterial growth incubated for 20 to 24 hrs by broth micro dilution method; format: functional; details: time 20-24 hrs
[21] = Ratio of MBC for bactericidal activity against Enterococcus faecium ATCC 700221 to MIC for antibacterial activity against Enterococcus faecium ATCC 700221; format: functional
Staphylococcus aureus [22] = assay: Antibacterial activity against methicillin-resistant Staphylococcus aureus ATCC 33592 assessed as inhibition of bacterial growth incubated for 20 to 24 hrs by broth micro dilution method; format: functional; details: time 20-24 hrs
[23] = Ratio of MBC for bactericidal activity against Bacillus subtilis CMCC (B) 63501 to MIC for antibacterial activity against Bacillus subtilis CMCC (B) 63501; format: functional
Enterococcus faecium [24] = assay: Antibacterial activity against Enterococcus faecium ATCC 49624 assessed as inhibition of bacterial growth incubated for 20 to 24 hrs by broth micro dilution method; format: functional; details: time 20-24 hrs
Bacillus subtilis [25] = assay: Bactericidal activity against Bacillus subtilis CMCC (B) 63501 assessed as inhibition of bacterial growth incubated for 24 hrs by resazurin dye based microtiter plate assay; format: functional
[26] = Ratio of MBC for bactericidal activity against Staphylococcus aureus ATCC 29213 to MIC for antibacterial activity against Staphylococcus aureus ATCC 29213; format: functional
Staphylococcus aureus [27] = assay: Synergistic antibacterial activity against methicillin-resistant Staphylococcus aureus ATCC BAA41 assessed as inhibition of bacterial growth incubated for 24 hrs in presence of methicillin by checker board assay; format: functional
Pseudomonas aeruginosa = assay: Antibacterial activity against […] Pseudomonas aeruginosa ATCC 27853 assessed as inhibition of bacterial growth incubated for 20 to 24 hrs by broth micro dilution method; format: functional; details: time 20-24 hrs
Bacillus subtilis [28] = assay: Induction of morphological changes in Bacillus subtilis CMCC (B) 63501 assessed as elongation of bacterial cell at 0.5 times MIC for 4 hrs (reference value: 3 to 5 um) by microscopic analysis; format: functional
[29] = Ratio of MBC for bactericidal activity against Staphylococcus aureus ATCC 43300 to MIC for antibacterial activity against Staphylococcus aureus ATCC 43300; format: functional
Staphylococcus aureus [30] = assay: Bactericidal activity against Staphylococcus aureus ATCC 29213 assessed as inhibition of bacterial growth incubated for 24 hrs by resazurin dye based microtiter plate assay; format: functional
Staphylococcus aureus [31] = assay: Antibacterial activity against Staphylococcus aureus ATCC 29213 assessed as inhibition of bacterial growth incubated for 20 to 24 hrs by broth micro dilution method; format: functional; details: time 20-24 hrs
[32] = biological target: T1, Cell division protein FtsZ (Staphylococcus aureus); assay: Binding affinity to Staphylococcus aureus FtsZ assessed as increase in alpha helix structure at 8 ug/ml incubated for 30 mins by circular dichroism method; details: dose 8.0 µg/ml
Enterococcus faecium [33] = assay: Antibacterial activity against vancomycin-resistant Enterococcus faecium clinical isolate assessed as inhibition of bacterial growth incubated for 20 to 24 hrs by broth micro dilution method; format: functional; details: time 20-24 hrs
Enterococcus faecium [34] = assay: Antibacterial activity against vancomycin resistant Enterococcus faecium ATCC 700221 assessed as inhibition of bacterial growth incubated for 20 to 24 hrs by broth micro dilution method; format: functional; details: time 20-24 hrs
Escherichia coli [35] = assay: Antibacterial activity against NDM-1 expressing Escherichia coli ATCC BAA2469 assessed as inhibition of bacterial growth incubated for 20 to 24 hrs by broth micro dilution method; format: functional; details: time 20-24 hrs
Escherichia coli [36] = assay: Antibacterial activity against Escherichia coli ATCC 8739 assessed as inhibition of bacterial growth incubated for 20 to 24 hrs by broth micro dilution method; format: functional; details: time 20-24 hrs
[37] = biological target: T1, Cell division protein FtsZ (Staphylococcus aureus); assay: Binding affinity to Staphylococcus aureus FtsZ assessed as decrease in other structure at 8 ug/ml incubated for 30 mins by circular dichroism method; details: dose 8.0 µg/ml
Staphylococcus aureus [38] = assay: Induction of drug resistance against Staphylococcus aureus ATCC 29213 assessed as fold increase in MIC after 16 passage; format: functional

Compound | MIC (Staphylococcus aureus [5]) [µg/mL] | MIC (Staphylococcus aureus [6]) [µg/mL] | MIC (Bacillus subtilis [7]) [µg/mL] | MIC (Enterococcus faecalis) [µg/mL] | MIC (Escherichia coli [10]) [µg/mL] | MIC (Staphylococcus aureus [12]) [µg/mL] | MIC (Acinetobacter baumannii) [µg/mL] | MIC (Staphylococcus aureus [19]) [µg/mL] | MIC (Klebsiella pneumoniae) [µg/mL] | MIC [20] [µg/mL] | MIC (Staphylococcus aureus [22]) [µg/mL] | MIC (Enterococcus faecium [24]) [µg/mL] | MIC (Pseudomonas aeruginosa) [µg/mL] | MIC (Staphylococcus aureus [31]) [µg/mL] | MIC (Enterococcus faecium [33]) [µg/mL] | MIC (Enterococcus faecium [34]) [µg/mL] | MIC (Escherichia coli [35]) [µg/mL] | MIC (Escherichia coli [36]) [µg/mL] | also measured
COc1cccc(OC)c1C(=O)N[C@@H]1C(=O)N2[C@@H]1SC(C)(C)[C@@H]2C(=O)O [METHICILLIN] | 1020 | – | – | – | – | – | – | – | – | – | – | – | – | – | – | – | – | – | MIC (Staphylococcus aureus [1]): 64 µg/mL (≈ 168 µM); MIC (Staphylococcus aureus [2]): 128 µg/mL (≈ 336 µM); MIC (Staphylococcus aureus [3]): 64 µg/mL (≈ 168 µM); MIC (Staphylococcus aureus [4]): 256 µg/mL (≈ 673 µM)
CCCCCNc1cc(/C=C/c2ccc(N(C)C)cc2)[n+](C)c2ccccc12.[I-] | 4 | 2 | 4 | 4 | 64 | 1 | > 64 | 4 | > 64 | 1 | 2 | 8 | > 64 | 2 | 4 | 4 | > 64 | > 64 | fractional inhibitory concentration index (FICI) (Staphylococcus aureus [8]): 0.375; MBC (Enterococcus faecium [9]): 8 µg/mL; MBC (Staphylococcus aureus [11]): 8 µg/mL; Activity (Staphylococcus aureus [13]): Active; Activity [14]: Active; Kb [15]: 2.01 10^5/M; Kd [16]: 2.38 µM; Activity [17]: Active; Activity [18]: Dde; Ratio [21]: 2; Ratio [23]: 1; MBC (Bacillus subtilis [25]): 4 µg/mL; Ratio [26]: 4; MIC (Staphylococcus aureus [27]): 0.5 µg/mL; Activity (Bacillus subtilis [28]): 30 um; Ratio [29]: 4; MBC (Staphylococcus aureus [30]): 8 µg/mL; Activity [32]: Active; Activity [37]: Active
CO[C@H]1/C=C/O[C@@]2(C)Oc3c(C)c(O)c4c(O)c(c(/C=N/N5CCN(C)CC5)c(O)c4c3C2=O)NC(=O)/C(C)=C\C=C\[C@H](C)[C@H](O)[C@@H](C)[C@@H](O)[C@@H](C)[C@H](OC(C)=O)[C@@H]1C [RIFAMPIN] | – | < 0.125 | 0.125 (≈ 0.152 µM) | 0.125 (≈ 0.152 µM) | 2 (≈ 2.43 µM) | < 0.125 | > 64 | 0.125 (≈ 0.152 µM) | > 64 | 1 (≈ 1.22 µM) | > 64 | < 0.125 | > 64 | 0.5 (≈ 0.608 µM) | 8 (≈ 9.72 µM) | < 0.125 | > 64 | 8 (≈ 9.72 µM) | fold change (FC) (Staphylococcus aureus [38]): 4096
